Patent US9320276B2, “N-hetarylmethyl pyrazolylcarboxamides” (BAYER INTELLECTUAL PROPERTY GMBH, priority 2010, dated 2016)

Key:
[1] = test system: Sphaerotheca fuliginea; experiment: in vivo preventive test on Sphaerotheca fuliginea (cucumber); details: 500 ppm of active ingredient, evaluated 7 days after inoculation
Procedure: Solvent: 49 parts by weight of N,N-dimethylformamide Emulsifier: 1 part by weight of Alkylarylpolyglycolether To produce a suitable preparation of active compound, 1 part by weight of active compound is mixed with the stated amounts of solvent and emulsifier, and the concentrate is diluted with water to the desired concentration. To test for preventive activity, young plants are sprayed with the preparation of active compound at the stated rate of application. One day after this treatment, the plants are inoculated with an aqueous spore suspension of Sphaerotheca fuliginea. Then the plants are placed in a greenhouse at approximately 23° C. and a relative atmospheric humidity of approximately 70%. The test is evaluated 7 days after the inoculation. 0% means an efficacy which corresponds to that of the untreated control, while an efficacy of 100% means that no disease is observed.

[2] = test system: Alternaria solani; experiment: in vivo preventive test on Alternaria solani (tomato); details: 500 ppm of active ingredient, evaluated 7 days after inoculation
Procedure: Solvent: 49 parts by weight of N,N-dimethylformamide Emulsifier: 1 part by weight of Alkylarylpolyglycolether To produce a suitable preparation of active compound, 1 part by weight of active compound is mixed with the stated amounts of solvent and emulsifier, and the concentrate is diluted with water to the desired concentration. To test for preventive activity, young plants are sprayed with the preparation of active compound at the stated rate of application. One day after this treatment, the plants are inoculated with an aqueous spore suspension of Alternaria solani. The plants remain for one day in an incubation cabinet at approximately 22° C. and a relative atmospheric humidity of 100%. Then the plants are placed in an incubation cabinet at approximately 20° C. and a relative atmospheric humidity of 96%. The test is evaluated 7 days after the inoculation. 0% means an efficacy which corresponds to that of the untreated control while an efficacy of 100% means that no disease is observed.

[3] = test system: Pyrenophora teres; experiment: in vivo preventive test on Pyrenophora teres (barley); details: 500 ppm of active ingredient, evaluated 7-9 days after inoculation
Procedure: (§1) Solvent: 49 parts by weight of N,N-dimethylformamide Emulsifier: 1 part by weight of alkylaryl polyglycol ether To produce a suitable preparation of active compound, 1 part by weight of active compound is mixed with the stated amounts of solvent and emulsifier, and the concentrate is diluted with water to the desired concentration. To test for preventive activity, young plants are sprayed with the preparation of active compound at the stated rate of application. One day after this treatment, the plants are inoculated with an aqueous spore suspension of Pyrenophora teres. The plants remain for 48 hours in an incubation cabinet at 22° C. and a relative atmospheric humidity of 100%. Then the plants are placed in a greenhouse at a temperature of approximately 20° C. and a relative atmospheric humidity of approximately 80%. The test is evaluated 7-9 days after the inoculation. 0% means an efficacy which corresponds to that of the untreated control while an efficacy of 100% means that no disease is observed.

[4] = logP by HPLC on reversed-phase column (EEC Directive 79/831 Annex V.A8); type: physicochemical; details: 40° C., 0.1% aqueous formic acid and acetonitrile, linear gradient 10% to 90% acetonitrile
Procedure: In table 1, the logP values were determined in accordance with EEC Directive 79/831 Annex V.A8 by HPLC (High Performance Liquid Chromatography) on a reversed-phase column (C 18), using the method described below: Temperature: 40° C.; Mobile phases: 0.1% aqueous formic acid and acetonitrile; linear gradient from 10% acetonitrile to 90% acetonitrile. Calibration was carried out using unbranched alkan-2-ones (comprising 3 to 16 carbon atoms) with known logP values (determination of the logP values by the retention times using linear interpolation between two successive alkanones). lambda-max-values were determined using UV-spectra from 200 nm to 400 nm and the peak values of the chromatographic signals.

[5] = test system: Leptosphaeria nodorum; experiment: in vivo preventive test on Leptosphaeria nodorum (wheat); details: 500 ppm of active ingredient, evaluated 7-9 days after inoculation
Procedure: as §1, with “weight of N,N-dimethylacetamide Emulsifier: 1” for “weight of N,N-dimethylformamide Emulsifier: 1”, “sprayed with a preparation of” for “sprayed with the preparation of”, “suspension of Leptosphaeria nodorum. The plants” for “suspension of Pyrenophora teres. The plants”, “of approximately 22° C. and” for “of approximately 20° C. and”, “of approximately 90%. The test” for “of approximately 80%. The test”, “the untreated control, while an” for “the untreated control while an”

[6] = test system: Blumeria graminis fsp. hordei; experiment: in vivo preventive test on Blumeria graminis (barley); details: 500 ppm of active ingredient, evaluated 7 days after inoculation
Procedure: Solvent: 49 parts by weight of N,N-dimethylacetamide Emulsifier: 1 part by weight of alkylaryl polyglycol ether To produce a suitable preparation of active compound, 1 part by weight of active compound or active compound combination is mixed with the stated amounts of solvent and emulsifier, and the concentrate is diluted with water to the desired concentration. To test for preventive activity, young plants are sprayed with the preparation of active compound or active compound combination at the stated rate of application. After the spray coating has been dried, the plants are dusted with spores of Blumeria graminis fsp. hordei. The plants are placed in the greenhouse at a temperature of approximately 18° C. and a relative atmospheric humidity of approximately 80% to promote the development of mildew pustules. The test is evaluated 7 days after the inoculation. 0% means an efficacy which corresponds to that of the untreated control, while an efficacy of 100% means that no disease is observed.

[7] = test system: Fusarium nivale (var. majus); experiment: in vivo curative test on Fusarium nivale (wheat); details: 500 ppm of active ingredient, evaluated 5 days after inoculation
Procedure: Solvent: 49 parts by weight of N,N-dimethylacetamide Emulsifier: 1 part by weight of alkylaryl polyglycol ether To produce a suitable preparation of active compound, 1 part by weight of active compound or active compound combination is mixed with the stated amounts of solvent and emulsifier, and the concentrate is diluted with water to the desired concentration. To test for curative activity, young plants are slightly injured by using a sandblast and afterwards they are sprayed with a conidia suspension of Fusarium nivale (var. majus) and placed for 24 hours in a greenhouse under a translucent incubation cabinet at a temperature of approximately 10° C. and a relative atmospheric humidity of approximately 100% and are subsequently sprayed with the preparation of active compound at the stated rate of application. After the spray coating has been dried, the plants remain in the greenhouse under translucent incubation cloches at a temperature of approximately 10° C. and a relative atmospheric humidity of approximately 100%. The test is evaluated 5 days after the inoculation. 0% means an efficacy which corresponds to that of the untreated control, while an efficacy of 100% means that no disease is observed.

[8] = test system: Septoria tritici; experiment: in vivo preventive test on Septoria tritici (wheat); details: 500 ppm of active ingredient, evaluated 21 days after inoculation
Procedure: Solvent: 49 parts by weight of N,N-dimethylacetamide Emulsifier: 1 part by weight of alkylaryl polyglycol ether To produce a suitable preparation of active compound, 1 part by weight of active compound or active compound combination is mixed with the stated amounts of solvent and emulsifier, and the concentrate is diluted with water to the desired concentration. To test for preventive activity, young plants are sprayed with the preparation of active compound or active compound combination at the stated rate of application. After the spray coating has been dried, the plants are sprayed with a spore suspension of Septoria tritici. The plants remain for 48 hours in an incubation cabinet at approximately 20° C. and a relative atmospheric humidity of approximately 100% and afterwards for 60 hours at approximately 15° C. in a translucent incubation cabinet at a relative atmospheric humidity of approximately 100%. The plants are placed in the greenhouse at a temperature of approximately 15° C. and a relative atmospheric humidity of approximately 80%. The test is evaluated 21 days after the inoculation. 0% means an efficacy which corresponds to that of the untreated control, while an efficacy of 100% means that no disease is observed.

[9] = HPLC on reversed-phase column (C 18)
[10] = HPLC, reversed-phase column (C 18)

Compound | Efficacy [1] | Efficacy [2] | Efficacy [3] | logP [4, 9] | Efficacy [5] | Efficacy [6] | Efficacy [7] | Efficacy [8] | logP [4, 10]
Cn1nc(C(F)F)c(C(=O)N(Cc2cccs2)C2CC2)c1F [Example 32] | 95% | 70% | 100% | 2.59 | – | – | – | – | –
Cn1nc(C(F)F)c(C(=O)NC2(c3cccs3)CCCC2)c1F [Example 34] | 70% | – | – | 2.96 | – | – | – | – | –
Cc1cc(C(C)N(C(=O)c2c(C(F)F)nn(C)c2F)C2CC2)c(C)s1 (centres unmarked) [Example 48] | – | 95% | 100% | 3.62 | 100% | 100% | 86% | 100% | –
CC(c1cccnc1Cl)N(C(=O)c1c(C(F)F)nn(C)c1F)C1CC1 (centres unmarked) [Example 50] | 100% | 95% | 100% | 2.23 | 71% | 89% | – | 71% | –
Cn1nc(C(F)F)c(C(=O)N(Cc2cc3ccccc3o2)C2CC2)c1F [Example 71] | – | – | 100% | 3.11 | 80% | 89% | 100% | 100% | –
Cn1nc(C(F)F)c(C(=S)N(Cc2cc3ccccc3o2)C2CC2)c1F [Example 73] | 85% | 90% | 100% | 3.76 | – | – | – | – | –
Cn1nc(C(F)F)c(C(=O)N(Cc2c(Cl)cncc2Cl)C2CC2)c1F [Example 115] | 83% | 100% | 100% | 2.54 | 80% | – | 71% | 86% | –
Cn1nc(C(F)F)c(C(=S)N(Cc2c(Cl)cncc2Cl)C2CC2)c1F [Example 117] | 95% | 100% | 100% | 3.29 | – | – | – | – | –
Cc1c(CN(C(=S)c2c(C(F)F)nn(C)c2F)C2CC2)sc2ccccc12 [Example 124] | 98% | 100% | 100% | 4.31 | – | – | – | – | –
Cc1nn(-c2ccccc2)nc1CN(C(=O)c1c(C(F)F)nn(C)c1F)C1CC1 [Example 131] | 97% | 90% | 95% | 3.29 | – | – | – | – | –
Cn1nc(C(F)F)c(C(=O)N(Cc2ccnc3ccc(Cl)cc23)C2CC2)c1F [Example 137] | 90% | 80% | 100% | 2.44 | – | – | – | – | –
Cc1nc(C(F)(F)F)c(CN(C(=O)c2c(C(F)F)nn(C)c2F)C2CC2)s1 [Example 140] | 100% | 80% | 100% | 2.75 | – | – | – | – | –
Cn1nc(C(F)F)c(C(=O)N(Cc2csc3ccc(Cl)cc23)C2CC2)c1F [Example 143] | 95% | 95% | 100% | 3.73 | – | 94% | – | 100% | –
Cn1nc(C(F)F)c(C(=S)N(Cc2csc3ccc(Cl)cc23)C2CC2)c1F [Example 145] | 93% | 90% | 100% | 4.36 | – | – | – | – | –
Cn1nc(C(F)F)c(C(=O)N(Cc2cc(-c3ccc(Cl)cc3)no2)C2CC2)c1F [Example 153] | – | 90% | 100% | 3.46 | – | – | – | – | –
CSc1ncc(C(C(C)C)N(C)C(=O)c2c(C(F)F)nn(C)c2F)c(C(F)(F)F)n1 (centres unmarked) [Example 157] | – | 70% | 90% | 3.46 | – | – | – | – | –
Cn1nc(C(F)F)c(C(=S)N(Cc2cc(C(F)(F)F)nc3ccccc23)C2CC2)c1F [Example 161] | 100% | – | 100% | 4.26 | – | – | – | – | –
Cn1nc(C(F)F)c(C(=O)N(Cc2ccnc3cc(Cl)cc(Cl)c23)C2CC2)c1F [Example 163] | 100% | – | 94% | 3.39 | – | – | – | – | –
Cn1nc(C(F)F)c(C(=O)N(Cc2cc(-c3cc(F)c(F)c(F)c3)no2)C2CC2)c1F [Example 165] | – | 100% | 100% | 3.53 | – | – | – | – | –
Cc1nc(-c2ccc(Cl)cc2)sc1CN(C(=O)c1c(C(F)F)nn(C)c1F)C1CC1 [Example 167] | – | 90% | 100% | – | – | – | – | – | 3.85
Cn1nc(C(F)F)c(C(=O)N(Cc2c(C(F)(F)F)nn(C)c2OC(F)F)C2CC2)c1F [Example 170] | 88% | 95% | 100% | – | – | – | – | – | 2.76
